Laboratory results reported in patent US8846704B2, “Thiopyrimidine-based compounds and uses thereof” (YM Biosciences Austraila Pty Ltd, priority 2007, dated 2014).

What was measured:
[1] = biological target: T1, BaF3 TELJAK2 cells (BafT_J2) (Homo sapiens, UniProt O60674); experiment: Cellular screening, BaF3 TEL:JAK2 cells, Alamar Blue; assay type: cell-based; conditions: 40 hr, read-out: BafT_J2 IC50_nM
T1 construct: fused on or other part: TEL (ETV6) N-terminal part, coding nucleotides 1-487, serves as the oligomerising partner; It is fused through a Sal I site to the JAK2 kinase domain and expressed from pTRE2 in BaF3 cells bearing pTET-off; P41212 (Transcription factor ETV6)
T1 sequence (O60674 whole entry, change not shown, the tested form may be a part): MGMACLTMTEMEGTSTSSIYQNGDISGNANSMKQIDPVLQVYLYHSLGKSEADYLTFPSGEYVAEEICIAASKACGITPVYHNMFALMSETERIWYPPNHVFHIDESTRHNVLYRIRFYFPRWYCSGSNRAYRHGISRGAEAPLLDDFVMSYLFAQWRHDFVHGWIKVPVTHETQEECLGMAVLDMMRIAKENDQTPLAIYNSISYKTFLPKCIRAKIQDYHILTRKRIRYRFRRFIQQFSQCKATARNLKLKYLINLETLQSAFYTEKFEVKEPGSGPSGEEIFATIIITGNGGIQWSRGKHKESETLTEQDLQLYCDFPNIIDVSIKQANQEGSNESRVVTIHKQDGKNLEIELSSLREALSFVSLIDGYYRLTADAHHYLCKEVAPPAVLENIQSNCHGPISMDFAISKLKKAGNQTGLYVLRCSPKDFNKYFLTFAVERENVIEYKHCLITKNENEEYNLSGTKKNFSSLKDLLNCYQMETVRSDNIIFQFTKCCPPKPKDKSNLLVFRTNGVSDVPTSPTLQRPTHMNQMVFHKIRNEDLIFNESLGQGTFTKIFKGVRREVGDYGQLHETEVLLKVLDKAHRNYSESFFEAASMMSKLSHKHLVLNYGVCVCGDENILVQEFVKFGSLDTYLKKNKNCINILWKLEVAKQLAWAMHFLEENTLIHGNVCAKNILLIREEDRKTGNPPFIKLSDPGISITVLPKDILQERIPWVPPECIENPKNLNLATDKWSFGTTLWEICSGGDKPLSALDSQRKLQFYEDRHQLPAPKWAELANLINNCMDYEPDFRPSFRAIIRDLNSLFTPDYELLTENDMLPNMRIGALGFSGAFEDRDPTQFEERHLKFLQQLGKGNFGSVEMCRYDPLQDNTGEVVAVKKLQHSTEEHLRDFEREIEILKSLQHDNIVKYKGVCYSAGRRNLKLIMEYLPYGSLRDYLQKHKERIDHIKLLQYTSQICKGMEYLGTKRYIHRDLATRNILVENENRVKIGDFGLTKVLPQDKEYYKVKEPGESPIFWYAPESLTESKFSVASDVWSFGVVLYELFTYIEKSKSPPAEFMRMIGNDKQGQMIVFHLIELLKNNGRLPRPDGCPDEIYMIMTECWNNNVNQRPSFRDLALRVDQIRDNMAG
Summary of the method: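 Tet-off BaF3 cells carrying a TEL (nt 1-487)–JAK2 kinase-domain fusion, grown factor-independently in DMEM with 10% Tet-approved FBS without WEHI 3B medium. Compounds were diluted to 20 μM in screening plates, and cells (50,000–200,000 cell/mL at 1.1×) were incubated 40 hr at 37 °C, 5% CO2. Alamar Blue was then added for 4-6 hours; read at 544 nm.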

CTLL2 = experiment: Cellular screening, CTLL2 cells, Alamar Blue; assay type: cell-based; conditions: Mus musculus, CTLL-2, read-out: CTLL2 IC50_nM
Summary of the method: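 Viability is read with Alamar Blue at 544 nm, the dye added for the final 4-6 hours. Compounds were incubated for 40 hr with CTLL2 cells taken from late-log-phase culture, at 37° C in 5% CO2.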

human JAK3 = biological target: T2, human JAK3 (Homo sapiens, UniProt P52333); experiment: Alphascreen tyrosine kinase enzyme assay, JAK3 kinase domain; assay type: biochemical; conditions: read-out: JAK3 IC50_nM
T2 construct: The kinase domain of human JAK3 was amplified; GST (N); made in house; host or cells: Sf9 insect cells (baculovirus)
T2 sequence (P52333 822-1111 limits assumed): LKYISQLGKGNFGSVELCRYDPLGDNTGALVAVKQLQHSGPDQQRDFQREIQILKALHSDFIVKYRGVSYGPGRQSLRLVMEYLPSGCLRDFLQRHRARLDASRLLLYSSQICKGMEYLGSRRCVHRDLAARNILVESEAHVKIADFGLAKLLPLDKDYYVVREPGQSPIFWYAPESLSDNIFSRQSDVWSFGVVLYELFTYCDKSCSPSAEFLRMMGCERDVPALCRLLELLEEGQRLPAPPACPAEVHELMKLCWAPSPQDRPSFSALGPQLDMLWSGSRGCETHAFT
Summary of the method: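 GST-affinity-purified human JAK3 kinase domain (baculovirus/Sf9) was pre-incubated 20 min with compound ([…]) in HEPES pH 7.5 buffer with MgCl2, vanadate and Tween 20. Biotinylated peptide substrate ([…]) and ATP were then added; phosphotyrosine was detected by AlphaScreen PY100 acceptor and streptavidin donor beads after 2–3 h.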

BaF3 wild-type cells = experiment: Cellular screening, BaF3 wild-type cells, Alamar Blue; assay type: cell-based; conditions: Mus musculus, 40 hr, read-out: BAF3wt IC50_nM
Summary of the method: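 Compounds, screened from dilution plates at 20 μM, were added as 10× final stocks to cells grown in DMEM/10% FCS/10% WEHI 3B conditioned medium. Cells were seeded at 1.1× final (50,000–200,000 cells/mL) and incubated 40 hr at 37° C, 5% CO2. Viability was read at 544 nm after a further 4–6 hours with Alamar Blue.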

human JAK2 = biological target: T3, human JAK2 (Homo sapiens, UniProt O60674); experiment: Alphascreen tyrosine kinase enzyme assay, JAK2 kinase domain; assay type: biochemical; conditions: read-out: JAK2 IC50_nM
T3 construct: The kinase domain of human JAK2 was amplified; GST (N); made in house; host or cells: Sf9 insect cells (baculovirus)
T3 sequence (O60674 849-1124 limits assumed): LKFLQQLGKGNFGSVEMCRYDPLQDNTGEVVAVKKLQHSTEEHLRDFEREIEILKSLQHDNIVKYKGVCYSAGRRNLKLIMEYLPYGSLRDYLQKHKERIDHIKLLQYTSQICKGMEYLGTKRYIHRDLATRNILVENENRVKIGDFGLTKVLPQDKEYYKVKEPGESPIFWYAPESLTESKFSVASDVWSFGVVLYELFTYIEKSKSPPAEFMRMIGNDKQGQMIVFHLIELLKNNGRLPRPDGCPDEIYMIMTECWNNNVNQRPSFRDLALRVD
Summary of the method: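 JAK2 kinase domain expressed in baculovirus/Sf9 and glutathione-affinity purified. Compounds (final […]) pre-incubated 20 min with enzyme in 10 mM HEPES pH 7.5, MgCl2, NaCl, vanadate, 0.1% Tween 20.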

SMILES	GI50 [1]	IC50 (CTLL2)	IC50 (human JAK3)	IC50 (BaF3 wild-type cells)	IC50 (human JAK2)
C=CC(=O)Nc1ccc(Sc2nc(Nc3ccc(N4CCOCC4)cc3)ncc2I)cc1 [Compound 313, N-(4-(5-iodo-2-(4-morpholinophenylao)pyrimidin-4-ylthio)phenyl)acrylamide]	> 20 µM	< 5 µM	< 0.1 µM	> 20 µM	> 1 µM
Cc1cnc(Nc2ccc(N3CCOCC3)cc2)nc1Sc1ccc(NC(=O)/C=C/C(=O)O)cc1 [Compound 387, (E)-4-(4-(5-methyl-2-(4-morpholinophenylao)pyrimidin-4-ylthio)phenylao)-4-oxobut-2-enoic acid]	> 20 µM	> 20 µM	< 0.1 µM	> 20 µM	< 1 µM
C=CC(=O)Nc1ccc(Sc2ccnc(Nc3ccc(S(=O)(=O)N4CCOCC4)c(OC)c3)n2)cc1 [Compound 373, N-(4-(2-(3-methoxy-4-(morpholinosulfonyl)phenylao)pyrimidin-4-ylthio)phenyl)acrylamide]	< 5 µM	< 5 µM	< 0.1 µM	< 5 µM	> 1 µM
N#CCC(=O)Nc1ccc(Sc2ccnc(Nc3ccc(N4CCC(N5CCCC5)CC4)cc3)n2)cc1 [Compound 88, 2-cyano-N-(4-(2-(4-(4-(pyrrolidin-1-yl)piperidin-1-yl)phenylao)pyrimidin-4-ylthio)phenyl)acetamide]	< 5 µM	< 20 µM	< 0.5 µM	< 5 µM	> 1 µM
C=CC(=O)Nc1ccc(Sc2nc(Nc3cccc(OCCCO)c3)ncc2C)cc1 [Compound 301, N-(4-(2-(3-(3-hydroxypropoxy)phenylao)-5-methylpyrimidin-4-ylthio)phenyl)acrylamide]	< 20 µM	< 1 µM	< 0.1 µM	< 20 µM	> 1 µM
CC(=O)Nc1ccc(Sc2ccnc(Nc3ccc(N4CCC(N5CCCC5)CC4)cc3)n2)cc1 [Compound 86, N-(4-(2-(4-(4-(pyrrolidin-1-yl)piperidin-1-yl)phenylao)pyrimidin-4-ylthio)phenyl)acetamide]	< 20 µM	< 5 µM	< 0.5 µM	< 5 µM	> 1 µM
C=CC(=O)Nc1ccc(Sc2ccnc(Nc3ccc(F)c(C#N)c3)n2)cc1 [Compound 354, N-(4-(2-(3-cyano-4-fluorophenylao)pyrimidin-4-ylthio)phenyl)acrylamide]	< 20 µM	< 20 µM	< 0.1 µM	< 20 µM	> 1 µM
C=CC(=O)Nc1ccc(Sc2ccnc(Nc3cccc(C#N)c3)n2)cc1 [Compound 118, N-(4-(2-(3-cyanophenylao)pyrimidin-4-ylthio)phenyl)acrylamide]	< 5 µM	> 20 µM	< 0.1 µM	> 20 µM	> 1 µM
COc1cc(Sc2ccnc(Nc3ccc(N4CCOCC4)cc3)n2)ccc1N [Compound 117, 4-(4-ao-3-methoxyphenylthio)-N-(4-morpholinophenyl)pyrimidin-2-ae]	< 20 µM	< 20 µM	< 0.5 µM	< 5 µM	> 1 µM
C=CC(=O)Nc1ccc(Sc2ccnc(Nc3ccc(N4CCC(N5CCCC5)CC4)cc3)n2)cc1 [Compound 87, N-(4-(2-(4-(4-(pyrrolidin-1-yl)piperidin-1-yl)phenylao)pyrimidin-4-ylthio)phenyl)acrylamide]	< 5 µM	< 1 µM	< 0.1 µM	< 5 µM	> 1 µM
C=CC(=O)Nc1ccc(Sc2ccnc(Nc3cccc(S(=O)(=O)NCc4ccccc4)c3)n2)cc1 [Compound 366, N-(4-(2-(3-(N-benzylsulfamoyl)phenylao)pyrimidin-4-ylthio)phenyl)acrylamide]	< 20 µM	< 5 µM	< 0.1 µM	< 20 µM	> 1 µM
C=CC(=O)Nc1ccc(Sc2ccnc(Nc3ccc(S(=O)(=O)NCc4ccccc4)cc3)n2)cc1 [Compound 368, N-(4-(2-(4-(N-benzylsulfamoyl)phenylao)pyrimidin-4-ylthio)phenyl)acrylamide]	< 20 µM	< 5 µM	< 0.1 µM	< 20 µM	> 1 µM
C=CC(=O)Nc1cccc(Nc2nccc(Sc3cccc(OC)c3)n2)c1 [Compound 31, N-(3-(4-(3-methoxyphenylthio)pyrimidin-2-ylao)phenyl)acrylamide]	< 20 µM	< 1 µM	< 0.1 µM	< 20 µM	> 1 µM
C=CC(=O)N(C)c1ccc(Sc2ccnc(Nc3ccc(N4CCOCC4)cc3)n2)cc1 [Compound 91, N-methyl-N-(4-(2-(4-morpholinophenylao)pyrimidin-4-ylthio)phenyl)acrylamide]	< 20 µM	< 1 µM	< 0.1 µM	> 20 µM	> 1 µM
C=CC(=O)Nc1ccc(Sc2nc(Nc3cccc(OC(F)(F)F)c3)ncc2C)cc1 [Compound 289, N-(4-(5-methyl-2-(3-(trifluoromethoxy)phenylao)pyrimidin-4-ylthio)phenyl)acrylamide]	< 20 µM	< 1 µM	< 0.1 µM	> 20 µM	> 1 µM
Nc1ccc(Sc2nc(Nc3ccc(N4CCOCC4)cc3)ncc2Cl)cc1 [Compound 318, 4-(4-aophenylthio)-5-chloro-N-(4-morpholinophenyl)pyrimidin-2-ae]	> 20 µM	< 20 µM	< 0.1 µM	< 20 µM	> 1 µM
C=CC(=O)Nc1ccc(Sc2nc(Nc3ccc(OC)c(O)c3)ncc2C)cc1 [Compound 283, N-(4-(2-(3-hydroxy-4-methoxyphenylao)-5-methylpyrimidin-4-ylthio)phenyl)acrylamide]	< 20 µM	< 1 µM	< 0.1 µM	< 20 µM	> 1 µM
C=CC(=O)Nc1ccc(Sc2ccnc(Nc3cccc(N4CCCC4)c3)n2)cc1 [Compound 355, N-(4-(2-(3-(pyrrolidin-1-yl)phenylao)pyrimidin-4-ylthio)phenyl)acrylamide]	< 20 µM	< 5 µM	< 0.1 µM	< 20 µM	> 1 µM
C=CC(=O)Nc1ccc(Sc2ccnc(Nc3ccc(N4CCOCC4)cc3)n2)c(Cl)c1C [Compound 161, N-(3-chloro-2-methyl-4-(2-(4-morpholinophenylao)pyrimidin-4-ylthio)phenyl)acrylamide]	> 20 µM	< 5 µM	< 0.1 µM	> 20 µM	> 1 µM
C=CC(=O)Nc1ccc(Sc2ccnc(Nc3ccc(Cl)cc3)n2)cc1 [Compound 353, N-(4-(2-(4-chlorophenylao)pyrimidin-4-ylthio)phenyl)acrylamide]	< 20 µM	< 5 µM	< 0.1 µM	> 20 µM	> 1 µM
C=CC(=O)Nc1ccc(Sc2ccnc(Nc3cccc(S(=O)(=O)N4CCN(C)CC4)c3)n2)cc1 [Compound 365, N-(4-(2-(3-(4-methylpiperazin-1-ylsulfonyl)phenylao)pyrimidin-4-ylthio)phenyl)acrylamide]	< 20 µM	< 20 µM	< 0.1 µM	< 20 µM	> 1 µM
C=C(CN1CCOCC1)C(=O)Nc1cccc(Sc2ccnc(Nc3ccc(N4CCOCC4)cc3)n2)c1 [Compound 328, 2-(morpholinomethyl)-N-(3-(2-(4-morpholinophenylao)pyrimidin-4-ylthio)phenyl)acrylamide]	< 1 µM	< 5 µM	< 0.1 µM	< 5 µM	> 1 µM
C=CC(=O)Nc1ccc(Sc2nc(Nc3ccc(N4CCS(=O)(=O)CC4)cc3)ncc2C)cc1 [Compound 298, N-{4-[(2-{[4-(1,1-dioxo-1λ^6,4-thiomorpholin-4-yl)phenyl]ao}-5-methylpyrimidin-4-yl)sulfanyl]phenyl}prop-2-enamide]	< 20 µM	< 1 µM	< 0.1 µM	< 20 µM	> 1 µM
C=CC(=O)Nc1ccc(Sc2ccnc(Nc3ccc(S(=O)(=O)N4CCN(C)CC4)cc3)n2)cc1 [Compound 370, N-(4-(2-(4-(4-methylpiperazin-1-ylsulfonyl)phenylao)pyrimidin-4-ylthio)phenyl)acrylamide]	< 20 µM	< 5 µM	< 0.1 µM	< 20 µM	> 1 µM
